Test results reported in PMC9656205, “In Vitro/In Vivo Translation of Synergistic Combination of MDM2 and MEK Inhibitors in Melanoma Using PBPK/PD Modelling: Part I” (International Journal of Molecular Sciences, 2022).
Read-outs that look alike come from different tables or passages of the source.

How the values were obtained:
A375 cells [1] = system: A375 cells; parameters: method as in PMID 22169769; conditions: cell count by DAPI nuclei staining, read-out: Literature IC50; cited from earlier work
[2] = system: A375 melanoma tumour model; experiment: In vivo efficacy, tumour growth inhibition in A375 xenograft; parameters: species or system CD-1 nude mice; conditions: n = 6
Experimental: The studied compounds, namely HDM201 and Trametinib, were tested separately and in combination as a therapy against an A375 melanoma tumour model. Tested compounds were administrated in three and six doses per schedule. […] Data from this efficacy study indicate that HDM201 and Trametinib are more efficacious when they are used in combination, compared to their efficacy when administered separately (please refer to maximal tumour growth inhibition (TGI) percentage, presented in Table 7, and compounds efficacy in single and combined administrations, shown in Figure 9).
(§1) Crl:CD-1-Foxn1^nu female mice, 4–5 weeks old, from Charles River Germany, inoculated subcutaneously with A375 cells, were used for in vivo studies. Determination of compound concentrations in plasma and A375 tumour tissue homogenates were performed with the use of quantitative LC-MS/MS system. Plasma and tissue samples were resected at the following timepoints: 1.5, 4, 8, 24 h (n = 3 per timepoint) after oral administration. Pharmacokinetic parameters AUC, Cmax, and Tmax were calculated using MS Excel 2016. Area under the concentration versus time curve was calculated using the linear trapezoidal rule.
Determination of tumour growth was performed after oral gavage of Vehicle (60% PEG 400 (v/v), 10% Cremophor RH40 (v/v), 10% EtOH (v/v) and 20% Labrafil M1944CS (v/v)), Siremadlin, Trametinib or their combination in Vehicle. The volume of the administered formulation (10 mL/kg) of the compounds was always adjusted to the mice body weight.
Tumour volume (V) was recorded with an electronic calliper 2–3 times a week and was calculated based on its length and width, using the prolate ellipsoid equation [46] (Equation (1)):V (mm^3) = d^2 × D/2(1) where d is the tumour width (mm) and D is the tumour length (mm).
Tumour growth inhibition (TGI) value was calculated using Equation (2):TGI (%) = (100 − (T/C × 100))(2) where C is the mean tumour size in control group (mm^3) and T is the mean tumour size in treated group (mm^3).

A375 cells [3] = experiment: Mean of MTS and RealTime-Glo assays (cytotoxicity / drug interaction metrics); format: cell-based, human
Experimental: (§2) Inhibition of tumour cell viability after single and combination drug treatment was measured with the use of MTS assay (CellTiter 96® AQueous Non-Radioactive Cell Proliferation Assay) and RealTime-Glo assay (RealTime-Glo™ MT Cell Viability Assay) in A375 cell line using standard manufacturer protocols. […] Drug combinations were tested in the matrix layout with the increasing concentrations of both drugs (please see Figures S1 and S2). […] Several independent assay repetitions were performed for MTS (n = 4) and RealTime-Glo assays (n = 3).
(§3) Drug combination interaction analysis was performed on in vitro cytotoxicity data from MTS and RealTime-Glo assays. […] For Synergyfinder analysis parameters, see Table S4. For a more detailed description of all Synergyfinder functions, please see its documentation and user instructions.

A375 cells [4] = experiment: RealTime-Glo MT cell viability assay, cytotoxicity and drug interaction analysis; format: cell-based; conditions: Homo sapiens, A-375, n = 3; for IC50: A375 cells, 72 h incubation, read-out: RealTime-Glo IC50 ± SD
Experimental: as §2, §3

[5] = Pharmacokinetics in plasma and A375 tumour tissue after single oral administration; format: in vivo, CD-1 nude mice; conditions: female, Crl:CD-1-Foxn1nu (CD-1 nude), mouse; for Cmax: n = 3; for AUC(0-t): n = 3, read-out: AUC0–24h ± SD
Experimental: Pharmacokinetic profiles were determined after single oral administration of HDM201 (100 mg/kg) and Trametinib (1 mg/kg) in vehicle formulation in CD-1 nude mice. Initial analysis of compound concentrations included plasma and A375 tumour tissue homogenates.
as §1

A375 cells [6] = experiment: MTS assay (CellTiter 96 AQueous) cytotoxicity and drug interaction analysis; format: cell-based; conditions: Homo sapiens, A-375; for IC50: A375 cells, 72 h incubation, read-out: MTS IC50 ± SD
Experimental: as §2, §3

A375 cells [7] = system: A375 cells; parameters: method as in PMID 30135191; conditions: cell count by amount of ATP (CellTiter-Glo assay), read-out: Literature IC50; cited from earlier work
[8] = A375 tumour tissue homogenate, 1 mg/kg, Trametinib 1 mg/kg single oral, with HDM201 100 mg/kg, A375 tumour
[9] = A375 tumour tissue homogenate, 1 mg/kg, Trametinib 1 mg/kg single oral, without HDM201, A375 tumour
[10] = plasma, 1 mg/kg, Trametinib 1 mg/kg single oral, with HDM201 100 mg/kg, plasma
[11] = plasma, 1 mg/kg, Trametinib 1 mg/kg single oral, without HDM201, plasma
[12] = plasma, range stated jointly for HDM201 and Trametinib, oral, mice, sparse sampling, read-out: typical Tmax
[13] = A375 tumour tissue homogenate, 100 mg/kg, HDM201 100 mg/kg single oral, without Trametinib, A375 tumour
[14] = A375 tumour tissue homogenate, HDM201 100 mg/kg single oral, with Trametinib 1 mg/kg, A375 tumour
[15] = plasma, 100 mg/kg, HDM201 100 mg/kg single oral, without Trametinib, plasma
[16] = plasma, HDM201 100 mg/kg single oral, with Trametinib 1 mg/kg, plasma

CC(=O)Nc1cccc(-n2c(=O)n(C3CC3)c(=O)c3c(Nc4ccc(I)cc4F)n(C)c(=O)c(C)c32)c1 [Trametinib]
IC50 (A375 cells [1]): 0.001 µM
Max TGI (%) ± SEM ([2]; Trametinib 0.3 mg/kg qdx6, oral): 65.47 ± 21.29%
Max TGI (%) ± SEM ([2]; Trametinib 1 mg/kg qdx6, oral): 90.05 ± 1.13%
% of viability at the last measurement ± SD (A375 cells [3]; Trametinib): 14.097 ± 2.594%
IC50 (A375 cells [4]): 0.0008 ± 0.0004 µM
viability at 0.04 µM (A375 cells [4]; RealTime-Glo, max concentration 40 nM, last observation after 80h, read-out: % of viability at the last measurement ± SD): 14.9 ± 2.59%
Cmax [5, 8]: 0.715 ± 0.197 µM
AUC(0-t) [5, 8]: 9.66 ± 1.39 µM·h
Tmax ([5]; A375 tumour tissue homogenate, 1 mg/kg, Trametinib 1 mg/kg single oral, with HDM201 100 mg/kg, A375 tumour, n = 3, read-out: Tmax ± SD): 4 h
Cmax [5, 9]: 0.587 ± 0.0663 µM
AUC(0-t) [5, 9]: 9.13 ± 1.3 µM·h
Tmax ([5]; A375 tumour tissue homogenate, 1 mg/kg, Trametinib 1 mg/kg single oral, without HDM201, A375 tumour, n = 3, read-out: Tmax ± SD): 4 h
Cmax [5, 10]: 0.354 ± 0.106 µM
AUC(0-t) [5, 10]: 4.48 ± 1.17 µM·h
Tmax ([5]; plasma, 1 mg/kg, Trametinib 1 mg/kg single oral, with HDM201 100 mg/kg, plasma, n = 3, read-out: Tmax ± SD): 4 ± 1.44 h
Cmax [5, 11]: 0.567 ± 0.0494 µM
AUC(0-t) [5, 11]: 5.58 ± 0.567 µM·h
Tmax ([5]; plasma, 1 mg/kg, Trametinib 1 mg/kg single oral, without HDM201, plasma, n = 3, read-out: Tmax ± SD): 4 ± 1.44 h
Tmax [5, 12]: 1.5 to 4 h
IC50 (A375 cells [6]; n = 4): 0.00058 ± 3e-05 µM
viability at 0.004 µM (A375 cells [6]; MTS, max concentration 4 nM, last observation after 72h, n = 4, read-out: % of viability at the last measurement ± SD): 13.3 ± 2.6%

COc1ncc(-c2nc3c(n2C(C)C)[C@H](c2ccc(Cl)cc2)N(c2cc(Cl)cn(C)c2=O)C3=O)c(OC)n1 [Siremadlin (HDM201), Siremadlin]
Max TGI (%) ± SEM ([2]; HDM201 40 mg/kg qdx3, oral): 33.39 ± 13.90%
Max TGI (%) ± SEM ([2]; HDM201 100 mg/kg qdx3, oral): 76.94 ± 5.38%
IC50 (A375 cells [7]): 0.764 µM
% of viability at the last measurement ± SD (A375 cells [3]; Siremadlin): 21.445 ± 6.389%
IC50 (A375 cells [4]): 0.26 ± 0.171 µM
viability at 4 µM (A375 cells [4]; RealTime-Glo, max concentration 4000 nM, last observation after 80h, read-out: % of viability at the last measurement ± SD): 21 ± 6.86%
Cmax [5, 13]: 16.2 µM
AUC(0-t) [5, 13]: 179 µM·h
Tmax ([5]; A375 tumour tissue homogenate, 100 mg/kg, HDM201 100 mg/kg single oral, without Trametinib, A375 tumour, n = 3, read-out: Tmax ± SD): 1.5 ± 1.44 h
Cmax [5, 14]: 28.6 µM
AUC(0-t) [5, 14]: 219 µM·h
Tmax ([5]; A375 tumour tissue homogenate, HDM201 100 mg/kg single oral, with Trametinib 1 mg/kg, A375 tumour, n = 3, read-out: Tmax ± SD): 1.5 ± 1.44 h
Cmax [5, 15]: 9.78 ± 2.98 µM
AUC(0-t) [5, 15]: 95.1 µM·h
Tmax ([5]; plasma, 100 mg/kg, HDM201 100 mg/kg single oral, without Trametinib, plasma, n = 3, read-out: Tmax ± SD): 1.5 ± 1.44 h
Cmax [5, 16]: 14.6 µM
AUC(0-t) [5, 16]: 108 µM·h
Tmax ([5]; plasma, HDM201 100 mg/kg single oral, with Trametinib 1 mg/kg, plasma, n = 3, read-out: Tmax ± SD): 1.5 ± 1.44 h
Tmax [5, 12]: 1.5 to 4 h
IC50 (A375 cells [6]; n = 4): 0.0657 ± 0.0047 µM
viability at 0.2 µM (A375 cells [6]; MTS, max concentration 200 nM, last observation after 72h, n = 4 (resistant population estimate), read-out: % of viability at the last measurement ± SD): 21.9 ± 5.92%
